Data reported in article doi:10.1101/2023.10.01.560353v1 (bioRxiv, 2023).
≈ marks a conversion by molar mass, not a printed value. Peptide text beside a SMILES is read from it.

These molecules were tested on 11 clinically relevant bacterial pathogens (assay: MIC over the panel of pathogens). Details: Table S17; lowest MIC over the strains tested.
Type: cell-based

SMILES | MIC (lowest MIC value obtained in the antimicrobial activity assays)
CC[C@H](C)[C@H](NC(=O)[C@H](CCCCN)NC(=O)[C@@H](N)CCCNC(=N)N)C(=O)N[C@@H](CC(C)C)C(=O)NCC(=O)N[C@@H](CC(=O)O)C(=O)N[C@@H](CC(C)C)C(=O)N[C@@H](CCCCN)C(=O)N[C@@H](Cc1ccccc1)C(=O)N[C@@H](CC(C)C)C(=O)N[C@@H](CCC(=O)O)C(=O)N[C@@H](CO)C(=O)N[C@@H](CC(C)C)C(=O)N[C@@H](CCCCN)C(=O)N[C@H](C(=O)N[C@@H](Cc1ccc(O)cc1)C(=O)O)[C@@H](C)O [Anomalopterin-1] (H-RKILGDLKFLESLKTY-OH) | 64000 mM (≈ 123000 mg/mL)
CC[C@H](C)[C@H](NC(=O)[C@H](CC(C)C)NC(=O)[C@@H](NC(=O)[C@H](CCCCN)NC(=O)[C@H](Cc1c[nH]c2ccccc12)NC(=O)[C@@H](NC(=O)[C@H](CCCCN)NC(=O)[C@H](CC(=O)O)NC(=O)[C@@H](NC(=O)[C@H](CC(C)C)NC(=O)[C@H](Cc1ccccc1)NC(=O)[C@H](C)NC(=O)CNC(=O)[C@@H](NC(=O)[C@@H](N)CCCCN)C(C)C)C(C)C)C(C)C)[C@@H](C)O)C(=O)O [Anomalopterin-2] (H-KVGAFLVDKVWKTLI-OH) | 32000 mM (≈ 54900 mg/mL)
CC[C@H](C)[C@H](N)C(=O)N[C@@H](CC(C)C)C(=O)N[C@@H](CC(C)C)C(=O)N[C@H](C(=O)N[C@H](C(=O)N[C@@H](C)C(=O)N[C@H](C(=O)N[C@@H](C)C(=O)N[C@H](C(=O)N[C@@H](CCCCN)C(=O)N[C@@H](CC(C)C)C(=O)NCC(=O)N[C@@H](CC(C)C)C(=O)O)[C@@H](C)CC)[C@@H](C)CC)[C@@H](C)O)[C@@H](C)O [Ararin-1] (H-ILLTTAIAIKLGL-OH) | 32000 mM (≈ 42900 mg/mL)
CC[C@H](C)[C@H](NC(=O)[C@H](CCCCN)NC(=O)[C@H](CC(N)=O)NC(=O)[C@@H](NC(=O)[C@@H](NC(=O)[C@H](Cc1c[nH]c2ccccc12)NC(=O)[C@H](CC(C)C)NC(=O)[C@H](CCC(N)=O)NC(=O)[C@H](CC(C)C)NC(=O)[C@@H](NC(=O)[C@H](C)NC(=O)[C@H](CC(C)C)NC(=O)[C@@H](N)CCCNC(=N)N)[C@@H](C)O)[C@@H](C)O)[C@@H](C)CC)C(=O)N[C@H](C(=O)N[C@@H](CCCCN)C(=O)N[C@@H](CCC(N)=O)C(=O)N[C@@H](CC(C)C)C(=O)N[C@@H](CCSC)C(=O)N[C@H](C(=O)N1CCC[C@H]1C(=O)N[C@@H](CC(C)C)C(=O)N[C@@H](CC(N)=O)C(=O)N[C@@H](CCCCN)C(=O)N1CCC[C@H]1C(=O)NCC(=O)N[C@@H](Cc1c[nH]cn1)C(=O)N[C@@H](CCCCN)C(=O)O)[C@@H](C)CC)[C@@H](C)O [Ararin-2] (H-RLATLQLWTINKITKQLMIPLNKPGHK-OH) | 16000 mM (≈ 50500 mg/mL)
CC[C@H](C)[C@H](NC(=O)[C@H](CC(C)C)NC(=O)[C@H](Cc1c[nH]cn1)NC(=O)[C@@H](NC(=O)[C@H](CC(C)C)NC(=O)[C@H](CC(C)C)NC(=O)[C@H](Cc1c[nH]cn1)NC(=O)CN)[C@@H](C)CC)C(=O)NCC(=O)N[C@@H](CCCCN)C(=O)N[C@@H](C)C(=O)N[C@H](C(=O)N[C@@H](CC(C)C)C(=O)N[C@@H](C)C(=O)N[C@@H](CC(C)C)C(=O)O)[C@@H](C)O [Arctoterin-1] (H-GHLLIHLIGKATLAL-OH) | 64000 mM (≈ 100000 mg/mL)
CC[C@H](C)[C@H](NC(=O)[C@H](Cc1ccccc1)NC(=O)[C@H](CC(N)=O)NC(=O)[C@@H](NC(=O)[C@@H](NC(=O)[C@H](Cc1c[nH]cn1)NC(=O)[C@@H](N)CC(C)C)[C@@H](C)O)[C@@H](C)CC)C(=O)N[C@H](C(=O)N[C@@H](CCCCN)C(=O)N[C@@H](CO)C(=O)N[C@@H](CC(C)C)C(=O)N[C@@H](CC(C)C)C(=O)N[C@@H](CC(C)C)C(=O)O)[C@@H](C)CC [Bisonin-1] (H-LHTINFIIKSLLL-OH) | 16000 mM (≈ 24400 mg/mL)
CC[C@H](C)[C@H](NC(=O)[C@H](CCCCN)NC(=O)[C@@H](NC(=O)[C@H](Cc1c[nH]c2ccccc12)NC(=O)[C@@H](N)CCCCN)[C@@H](C)O)C(=O)N[C@@H](Cc1ccc(O)cc1)C(=O)N[C@@H](CC(C)C)C(=O)N1CCC[C@H]1C(=O)N[C@@H](CC(C)C)C(=O)N[C@@H](CC(C)C)C(=O)N[C@@H](CC(C)C)C(=O)N1CCC[C@H]1C(=O)N[C@@H](CC(C)C)C(=O)O [Bisonin-2] (H-KWTKIYLPLLLPL-OH) | 8000 mM (≈ 12800 mg/mL)
CC[C@H](C)[C@H](NC(=O)[C@H](CCCCN)NC(=O)[C@H](CC(C)C)NC(=O)[C@H](Cc1c[nH]cn1)NC(=O)[C@@H](N)CC(C)C)C(=O)N[C@@H](CC(C)C)C(=O)N[C@@H](CCCCN)C(=O)N[C@H](C(=O)N[C@H](C(=O)N[C@@H](CCCNC(=N)N)C(=O)N[C@@H](CC(C)C)C(=O)N[C@@H](CC(C)C)C(=O)O)[C@@H](C)CC)[C@@H](C)CC [Elephasin-1] (H-LHLKILKIIRLL-OH) | 4000 mM (≈ 5890 mg/mL)
CC(C)C[C@H](NC(=O)[C@H](CC(C)C)NC(=O)[C@@H](NC(=O)[C@H](CCCNC(=N)N)NC(=O)[C@H](C)NC(=O)[C@H](Cc1ccccc1)NC(=O)[C@H](CCCNC(=N)N)NC(=O)[C@H](CO)NC(=O)[C@H](Cc1c[nH]c2ccccc12)NC(=O)[C@H](CCCNC(=N)N)NC(=O)[C@H](CC(C)C)NC(=O)[C@H](CCCCN)NC(=O)[C@H](CC(C)C)NC(=O)[C@@H](N)Cc1ccccc1)C(C)C)C(=O)O [Equusin-1] (H-FLKLRWSRFARVLL-OH) | 1000 mM (≈ 1810 mg/mL)
CC[C@H](C)[C@H](NC(=O)[C@H](Cc1ccc(O)cc1)NC(=O)[C@H](C)NC(=O)[C@@H](N)CCCNC(=N)N)C(=O)N[C@@H](CS)C(=O)N[C@@H](CCCNC(=N)N)C(=O)N[C@@H](CCCCN)C(=O)N[C@@H](CCCCN)C(=O)N[C@@H](Cc1ccccc1)C(=O)N[C@@H](CC(C)C)C(=O)N[C@@H](CO)C(=O)N[C@@H](CC(C)C)C(=O)N[C@@H](CCCNC(=N)N)C(=O)N[C@@H](CCCCN)C(=O)N[C@@H](C)C(=O)N[C@@H](CO)C(=O)N[C@H](C(=O)N[C@@H](CCCCN)C(=O)N[C@@H](CC(C)C)C(=O)N[C@@H](CCC(N)=O)C(=O)N[C@@H](CO)C(=O)N[C@@H](CC(C)C)C(=O)N[C@H](C(=O)N[C@@H](CCCNC(=N)N)C(=O)N[C@@H](CCSC)C(=O)N[C@@H](CCCCN)C(=O)O)C(C)C)[C@@H](C)CC [Equusin-2] (H-RAYICRKKFLSLRKASIKLQSLVRMK-OH) | 8000 mM (≈ 25100 mg/mL)
CC[C@H](C)[C@H](NC(=O)[C@H](CC(C)C)NC(=O)[C@H](CCCNC(=N)N)NC(=O)[C@H](Cc1c[nH]c2ccccc12)NC(=O)[C@H](CC(C)C)NC(=O)[C@@H](NC(=O)[C@H](CCCNC(=N)N)NC(=O)[C@H](CCC(N)=O)NC(=O)[C@H](Cc1ccc(O)cc1)NC(=O)[C@H](CC(C)C)NC(=O)[C@@H](N)CCCCN)[C@@H](C)CC)C(=O)N[C@@H](CO)C(=O)N[C@@H](CCC(=O)O)C(=O)N[C@@H](CC(C)C)C(=O)O [Equusin-3] (H-KLYQRILWRLISEL-OH) | 4000 mM (≈ 7320 mg/mL)
CC[C@H](C)[C@H](NC(=O)[C@H](CCCNC(=N)N)NC(=O)[C@H](Cc1c[nH]cn1)NC(=O)[C@H](CCCCN)NC(=O)[C@@H](NC(=O)CNC(=O)[C@H](CCCNC(=N)N)NC(=O)[C@H](C)NC(=O)[C@H](CCCCN)NC(=O)[C@@H](NC(=O)[C@H](C)NC(=O)[C@@H]1CCCN1C(=O)[C@H](CC(C)C)NC(=O)[C@H](CCC(N)=O)NC(=O)[C@H](CO)NC(=O)[C@H](Cc1ccccc1)NC(=O)[C@H](CC(C)C)NC(=O)[C@H](CC(C)C)NC(=O)[C@@H](NC(=O)[C@@H](N)CS)C(C)C)C(C)C)[C@@H](C)O)C(=O)N[C@@H](CCCCN)C(=O)N[C@@H](Cc1c[nH]c2ccccc12)C(=O)N[C@@H](CC(N)=O)C(=O)N[C@@H](CCCNC(=N)N)C(=O)N[C@@H](CCCCN)C(=O)O [Equusin-4] (H-CVLLFSQLPAVKARGTKHRIKWNRK-OH) | 16000 mM (≈ 47200 mg/mL)
CC[C@H](C)[C@H](NC(=O)[C@H](Cc1c[nH]cn1)NC(=O)[C@@H](N)CC(C)C)C(=O)NCC(=O)N[C@@H](CC(C)C)C(=O)N[C@H](C(=O)N[C@@H](CCCCN)C(=O)N[C@H](C(=O)N[C@@H](Cc1ccc(O)cc1)C(=O)N[C@@H](CC(C)C)C(=O)NCC(=O)N[C@@H](CO)C(=O)N[C@@H](Cc1ccccc1)C(=O)N[C@@H](C)C(=O)N[C@@H](CC(C)C)C(=O)O)[C@@H](C)O)[C@@H](C)CC [Eudyptin-1] (H-LHIGLIKTYLGSFAL-OH) | 64000 mM (≈ 105000 mg/mL)
CC[C@H](C)[C@H](NC(=O)[C@@H](NC(=O)[C@H](Cc1c[nH]c2ccccc12)NC(=O)[C@H](CCCCN)NC(=O)[C@@H](N)CCCCN)C(C)C)C(=O)N[C@@H](CCCCN)C(=O)N[C@@H](CO)C(=O)N[C@H](C(=O)N[C@H](C(=O)N[C@@H](Cc1ccccc1)C(=O)N[C@@H](Cc1ccccc1)C(=O)N[C@@H](CCCCN)C(=O)O)C(C)C)C(C)C [Hesperelin-2] (H-KKWVIKSVVFFK-OH) | 8000 mM (≈ 12100 mg/mL)
CC[C@H](C)[C@H](NC(=O)CNC(=O)[C@H](Cc1c[nH]cn1)NC(=O)[C@H](CC(N)=O)NC(=O)[C@H](CCCCN)NC(=O)[C@H](CCC(N)=O)NC(=O)[C@@H](N)CCCNC(=N)N)C(=O)N[C@@H](Cc1c[nH]cn1)C(=O)N[C@@H](Cc1ccccc1)C(=O)N[C@@H](CCCNC(=N)N)C(=O)N[C@H](C(=O)N[C@@H](CC(C)C)C(=O)N[C@@H](C)C(=O)N[C@@H](CCCCN)C(=O)N[C@@H](C)C(=O)N[C@@H](CC(C)C)C(=O)N[C@@H](CCCNC(=N)N)C(=O)O)C(C)C [Hesperelin-3] (H-RQKNHGIHFRVLAKALR-OH) | 64000 mM (≈ 131000 mg/mL)
CC[C@H](C)[C@H](N)C(=O)N[C@H](C(=O)NCC(=O)N[C@@H](CC(N)=O)C(=O)N[C@H](C(=O)N[C@@H](Cc1ccccc1)C(=O)NCC(=O)N[C@@H](Cc1ccccc1)C(=O)N[C@@H](CCCCN)C(=O)N[C@@H](C)C(=O)N[C@@H](CC(C)C)C(=O)N[C@@H](CCCNC(=N)N)C(=O)N[C@@H](C)C(=O)N[C@@H](CC(C)C)C(=O)N[C@@H](CCCNC(=N)N)C(=O)N[C@@H](CC(C)C)C(=O)O)C(C)C)C(C)C [Hesperelin-4] (H-IVGNVFGFKALRALRL-OH) | 64000 mM (≈ 114000 mg/mL)
